Here are results for three compounds from US20220152028A1, “COMBINATION DRUG TREATMENT FOR HUMAN CYTOMEGALOVIRUS” (Microbiotix, Inc., priority 2019, published 2022).

Each structure is given as a SMILES string.

Assay [1] deals with HCMV DNA polymerase UL54 (Human cytomegalovirus, UniProt P08546). The note with it: higher than GCV-TP; cited from earlier work.
Assay [2] concerns HCMV UL56 mutant C325F. Description: SEAP reporter susceptibility assay in ARPEp cells, UL56 C325F. The format is cell-based, human cytomegalovirus. The text has this:
(§1) In order to test the effect of filociclovir on letermovir-resistant strains, we used 4 HCMV UL56 mutants encountered in clinical practice: V231L, V236M, C325F and C325Y, the latter 2 of which commonly emerged to confer absolute letermovir resistance (Grantham et al., Biol. Blood Marrow Transplant. 25: S344-S345 (2019); Turner et al., Antimicrob. Agents Chemother., 63(3): e02337-18 (2019)).
(§2) These UL56 amino acid substitutions were introduced into the bacterial artificial chromosome (BAC) clone BD2 of HCMV laboratory strain AD169 modified with a secreted alkaline phosphatase (SEAP) reporter gene, as previously described (Chou, S., Antimicrob. Agents Chemother., 59: 6588-6593 (2015)). The mutagenized BAC clones were transfected into modified retinal epithelial (ARPEp) cells and the recovered infectious recombinant viruses were then genotyped and phenotyped as previously described (Chou et al., Antimicrob. Agents Chemother., 62(9): e00922-18 (2018)).
(§3) Control strains included a baseline strain of wild-type UL56 and a UL97 M460V mutant that is resistant to […]. For susceptibility assays, calibrated viral inocula were added to 24-well plate cultures of ARPEp cells and incubated under a series of filociclovir concentrations, and the concentrations required to reduce SEAP activity by 50% (EC50) at 6 days were determined in duplicate assays on each of 3 to 5 setup dates.

Assay [3] deals with HCMV UL56 mutant V231L. The experiment in a line: SEAP reporter susceptibility assay in ARPEp cells, UL56 V231L. It is filed as cell-based, human cytomegalovirus.
Excerpt: as §1, §2, §3

Assay [4] has as its system HCMV UL97 M460V mutant. Description: SEAP reporter susceptibility assay in ARPEp cells, UL97 M460V. It is filed as cell-based, human cytomegalovirus.
Excerpt: as §2, §3

Assay [5] deals with HCMV (strain AD169). The experiment in a line: Plaque reduction assay in HFF cells infected with HCMV strain AD169. It is filed as cell-based, human cytomegalovirus. The conditions noted are these: Human betaherpesvirus 5, 216 h, plaque count after 9 days, read-out: EC50, compound tested separately. On the procedure:
We examined the in vitro anti-HCMV (strain AD169; ATCC #VR-538) activity of filociclovir and letermovir both separately and as triplicate combinations at a concentration range of 0.0064-100 μM, and 0.0064-100 nM, respectively.
Monolayers of human foreskin fibroblasts (HFF cells; ATCC #SCRC-1041) were grown in 1 ml of DMEM (Corning #10-013-CM) containing 10% heat-inactivated fetal bovine serum (Gibco #A38402-01) and 1% penicillin-streptomycin solution (Hyclone #SV30010) in 24-well plates and infected with 100 plaque forming units (PFUs) of HCMV. Following incubation for 1 hr at 37° C., the virus was aspirated and replaced with MEM (Corning #50-010-PB) containing 1% methyl cellulose (Sigma #M-0521) and the various concentrations of filociclovir and letermovir were added as set forth above. A set of wells, designated as non-treated controls, received neither of the two compounds.
Infected plates were incubated for 9 days at 37° C., then fixed and stained with crystal violet stain (0.1% in 20% methanol). The number of plaques in each well was counted and the level of synergism was assessed using MacSynergy™ II (Prichard and Shipman 1990, supra), which provides an overall evaluation of the deviation from the theoretical additive effect of both drugs based on individual dose-response curves.
For orientation: Plaque reduction counts the foci of infection that form in a cell layer.

In assay [6] the test system is HCMV UL56 mutants (V231L, V236M, C325F, C325Y). The experiment in a line: SEAP reporter susceptibility assay in ARPEp cells, UL56 mutants as a group. The format is cell-based, human cytomegalovirus. The conditions noted are these: Human betaherpesvirus 5, read-out: mean EC50 values against the UL56 mutants tested.
Excerpt: as §1, §2, §3

The test system of assay [7] is HCMV control strain UL56 wt. The experiment in a line: SEAP reporter susceptibility assay in ARPEp cells, baseline strain. It is filed as cell-based, human cytomegalovirus. The conditions noted are these: Human betaherpesvirus 5, 144 h, read-out: Mean EC50.
Excerpt: as §2, §3

The test system of assay [8] is HCMV UL56 mutant C325Y. Description: SEAP reporter susceptibility assay in ARPEp cells, UL56 C325Y. The format is cell-based, human cytomegalovirus.
Excerpt: as §1, §2, §3

Assay [9] deals with HCMV UL56 mutant V236M. The experiment in a line: SEAP reporter susceptibility assay in ARPEp cells, UL56 V236M. The format is cell-based, human cytomegalovirus.
Excerpt: as §1, §2, §3

In assay [10] the test system is HCMV. The conditions noted are these: literature statement; cited from earlier work.
[11] abbreviates: Human betaherpesvirus 5, 144 h, read-out: Mean EC50.

As a reminder, the EC50 is the midpoint of the concentration-response curve.

HCMV DNA polymerase UL54, sequence (P08546 whole entry): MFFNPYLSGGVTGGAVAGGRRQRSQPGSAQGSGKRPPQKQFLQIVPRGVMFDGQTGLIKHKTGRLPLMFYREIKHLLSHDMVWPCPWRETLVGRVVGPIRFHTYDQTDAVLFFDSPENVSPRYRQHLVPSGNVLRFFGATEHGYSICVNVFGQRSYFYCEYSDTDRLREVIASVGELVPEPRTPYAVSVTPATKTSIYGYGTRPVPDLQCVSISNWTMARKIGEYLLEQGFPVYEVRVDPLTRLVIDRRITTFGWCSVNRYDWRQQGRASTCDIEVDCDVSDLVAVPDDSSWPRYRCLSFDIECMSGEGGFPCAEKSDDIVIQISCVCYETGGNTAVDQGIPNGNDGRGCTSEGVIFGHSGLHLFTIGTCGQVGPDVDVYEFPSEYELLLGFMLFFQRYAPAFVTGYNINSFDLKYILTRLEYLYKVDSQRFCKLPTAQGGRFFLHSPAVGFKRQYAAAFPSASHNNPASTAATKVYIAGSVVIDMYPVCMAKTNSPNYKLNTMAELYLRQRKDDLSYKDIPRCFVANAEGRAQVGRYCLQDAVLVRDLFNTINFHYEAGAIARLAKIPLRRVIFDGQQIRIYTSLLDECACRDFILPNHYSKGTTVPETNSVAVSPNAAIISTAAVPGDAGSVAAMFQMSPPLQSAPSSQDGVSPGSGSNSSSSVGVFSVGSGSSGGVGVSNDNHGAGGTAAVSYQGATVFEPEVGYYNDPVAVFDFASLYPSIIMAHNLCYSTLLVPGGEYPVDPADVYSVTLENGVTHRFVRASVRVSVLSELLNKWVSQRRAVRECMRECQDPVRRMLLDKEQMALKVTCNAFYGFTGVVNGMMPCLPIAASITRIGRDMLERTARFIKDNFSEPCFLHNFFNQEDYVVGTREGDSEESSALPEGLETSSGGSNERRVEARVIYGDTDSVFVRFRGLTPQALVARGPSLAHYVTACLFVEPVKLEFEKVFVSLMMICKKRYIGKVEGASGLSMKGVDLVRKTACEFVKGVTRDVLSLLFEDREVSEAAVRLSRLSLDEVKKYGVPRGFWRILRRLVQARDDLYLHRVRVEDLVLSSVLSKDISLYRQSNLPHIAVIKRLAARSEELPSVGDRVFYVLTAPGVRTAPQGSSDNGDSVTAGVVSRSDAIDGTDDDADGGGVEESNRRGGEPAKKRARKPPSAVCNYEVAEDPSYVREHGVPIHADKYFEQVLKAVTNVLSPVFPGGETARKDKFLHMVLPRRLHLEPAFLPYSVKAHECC

Take `Nc1nc2c(ncn2/C=C2/CC2(CO)COP(=O)(O)OP(=O)(O)OP(=O)(O)O)c(=O)[nH]1` (stereo not shown) [FCV-TP, FCV triphosphate]: the “affinity to HCMV DNA polymerase UL54 relative to GCV-TP” value in assay [1] is on record as “about 10 fold”.
Regarding `Nc1nc2c(ncn2/C=C2/CC2(CO)CO)c(=O)[nH]1` [Filociclovir, (Z)-9-{[2,2-bis-(hydroxymethyl)cyclopropylidene]methyl}guanine], the concentration for a half-maximal effect (EC50) in [2] (setting [11]) is 350 nM; in [3] (setting [11]), 290 nM; in assay [4] (setting [11]), 2030 nM; in assay [5], 550 nM; in assay [6] it was 290 to 380 nM; in assay [7], 430 nM. Besides, the EC50 in [8] (setting [11]) turned out to be 380 nM; in assay [9] (setting [11]), 350 nM. In addition, the “Ratio = EC50 of mutant/EC50 of wild type control” value in assay [2] (UL56 C325F) came to 0.82; in assay [3] (UL56 V231L), 0.69; in assay [4] (UL97 M460V), 4.8; in [8] (UL56 C325Y), 0.89; in assay [9] (UL56 V236M) it was 0.81.
On to `COc1cccc(N2CCN(C3=Nc4c(F)cccc4[C@H](CC(=O)O)N3c3cc(C(F)(F)F)ccc3OC)CC2)c1` [letermovir, 2-[(4S)-8-fluoro-2-[4-(3-methoxyphenyl)piperazin-1-yl]-3-[2-methoxy-5-(trifluoromethyl)phenyl]-4H-quinazolin-4-yl]acetic acid, reference compound], for which the EC50 values entry in [10] is on record as “nanomolar range”. The EC50 in [5] is 3 nM.
